Test results: US12076307B2, “Compositions for prevention or treatment of acute radiation syndrome and other radiation exposure” (priority 2017, dated 2024)
Where “and” joins values, the source holds several entries; their conditions need not be identical. Equal values may be shown once. Marks after values point to notes of the source that are not given here.

Tests used:
[1] = system: Balb/c mice, TBI 6.5 Gy; assay: Survival in extreme LD100 TBI murine model (6.5 Gy); assay type: in vivo, mouse; conditions: for Survival: 250 mg/kg/day 16 days
Description: Animals were treated orally with phosphate-buffered saline or EC-18 at 250 mg/kg/day for 16 days.

[2] = In vitro plasma stability, rat plasma; assay type: in vitro ADME; conditions: Rats; 1 μM; 37° C.; n=3
Description: To assess the stability of EC-18 in plasma, the test material, or the standard reference material (test concentration 1 μM) was mixed with rat and human plasma and allowed to react for 1 hr at 37° C. Then, the residual EC-18 concentration was measured by LC-MS/MS. As standard reference materials, albendazole (a drug with high plasma stability) and vinpocetine (a drug with low plasma stability) were tested in parallel. When allowed to react with rat and human plasma for 1 hr, the residual EC-18 concentration in both rat and human plasma was >99% of the initial dose.

[3] = Fertility and early embryonic developmental toxicity study; assay type: in vivo, rat; conditions: both sexes, SD, rat, in vivo; both males and females
Description: (§1) Various toxicology studies have been performed. All studies were GLP-compliant unless otherwise noted.

[4] = system: SD rat; assay: as above; assay type: in vivo; conditions: Oral; 0, 500, 1000, 2000 mg/kg
Description: as §1

[5] = system: SD rat; assay: Immunotoxicity study; assay type: in vivo; conditions: Oral; 4 weeks; 0, 2000 mg/kg
Description: as §1

[6] = system: Balb/c mice, 6.11 Gy TBI; assay: Dose optimization / pharmacodynamics study in LD70/30 ARS model (40 mice per group)
[7] = In vitro metabolic stability / metabolite screening, human liver microsomes; assay type: in vitro ADME; conditions: for Mean Peak Area in LC-RID: Human, N=2
Description: [^14C]EC-18 or the positive control (7-ethoxycoumarin; 7-EC) reacted with microsomes prepared from hepatocytes of rats, dogs, monkeys, and humans, with or without cofactors, for 60 and 120 min. Then, the residual EC-18 concentration over time was measured by LC-RID ([^14C]EC-18) or LC-MS/MS (7-EC) (FIG. 63 and FIG. 64).
Each test system was designed to examine phase 1 metabolic reaction (test system A), phase 2 metabolic reaction (test system B), and non-enzymatic degradation.
The LC-RID chromatographic profiles of radioactive metabolites produced in the 2-hr incubation reaction mixtures of the same test systems A, B, and C used to assess the metabolic and non-metabolic elimination rates of EC-18 were compared to the LC-UV chromatographic profiles of the synthetic reference material. […] The relative radioactivity of EC-18 accounted for 42-67% of total radioactivity. […]. The peaks of M4 and M6 were determined in monkeys and humans. M1 was abundantly detected in all species, but it was assumed to be a peak of early elution. The LC-UV chromatograms of reaction mixtures in each test system (FIGS. 65A-65C) and the relative radioactivity of the screened metabolites are shown in Table 25.

[8] = Whole blood and lymphatic radioactivity in rats after single oral [14C]EC-18 100 mg/kg; assay type: in vivo, rat; conditions: 100 mg/kg oral; for Tmax: n=3, 100 mg/kg
Description: Male SD rats in fasted condition were administered a single dose of [^14C]EC-18 (oral dose of 100 mg/kg; vehicle: olive oil), and the radioactive concentration of the EC-18 was measured in whole blood samples at 0.5, 1, 2, 3, 4, 6, and 8 hrs after its administration. In parallel, male rats with a cannula inserted into the intestinal tract were administered a single dose of [^14C]EC-18 (oral dose of 100 mg/kg; vehicle: olive oil) and the concentration of EC-18-related radioactivity was measured in lymphatic fluid collected in conscious rats at 0.5, 1, 2, 3, 4, 6, and 8 hrs after its administration (FIG. 60). Then, the values of PK parameters were calculated using the quantitative data from whole blood and lymphatic fluid samples (Table 20). Following a single oral administration of [14C]EC-18, EC-18 concentration in the lymphatic fluid of rats was 10 to 53 times higher than that in whole blood (FIG. 60).

[9] = 6.11 Gy, EC-18 50 mg/kg daily from day 1, 30 days
[10] = 6.11 Gy, EC-18 100 mg/kg daily from day 1, 30 days
[11] = 6.11 Gy, EC-18 250 mg/kg daily from day 1, 30 days
[12] = 6.11 Gy, EC-18 500 mg/kg daily from day 1, 30 days

CCCCC/C=C\C/C=C\CCCCCCCC(=O)OC(COC(C)=O)COC(=O)CCCCCCCCCCCCCCC (stereo not shown) [EC-18, 1-palmitoyl-2-linoleoyl-3-acetylglycerol]
signs of subcutaneous hemorrhage ([1]; 250 mg/kg/day): markedly improved
Survival ([1]; started 24-hr post-irradiation): 65%
Survival ([1]; started 48-hr post-irradiation): 25%
Residual Concentration Relative to the Initial Dose After Reaction for 1 hr in Plasma [2]: >99%
NOAEL [3]: 2000 mg/kg/day
mortality [4]: No dead animals
immunotoxicity [5]: No immunotoxicity
improvement in survival vs control group ([6]; 25 mg/kg (so in the source)): 2 fold
improvement in survival vs control group ([6]; 250 mg/kg daily, 24-hr delayed): 4 fold
γ-radiation-induced reduction of RBC and hemoglobin ([6]; 250 mg/kg, 30 days of observation): significantly prevented
mean PLT count vs control cohort ([6]; 250 mg/kg, from 15 days to the last day of observation): higher
improvement in survival vs control group ([6]; 500 mg/kg daily, 24-hr delayed): ~4 fold
Survival time of decedents, Median ([6]; 6.11 Gy, EC-18 50 mg/kg): 25.5 days
No. of mice that survived/total [6, 9]: 24/40
Survivability / Survival [6, 9]: 60%
Survival time of decedents, Mean ± SEM ([6]; 6.11 Gy, EC-18 50 mg/kg, 50 mg/kg): 24.3 days and 24.3 ± 1.2 days
Survival time of decedents, Mean ± SEM ([6]; 6.11 Gy, EC-18 100 mg/kg): 22.8 ± 1.7 days
Survival time of decedents, Median ([6]; 6.11 Gy, EC-18 100 mg/kg): 26.0 days
No. of mice that survived/total [6, 10]: 27/40
Survival [6, 10]: 67.5%
Survival time of decedents, Median ([6]; 6.11 Gy, EC-18 250 mg/kg): 27.5 days
No. of mice that survived/total [6, 11]: 34/40
Survivability / Survival [6, 11]: 85%
Survival time of decedents, Mean ± SEM ([6]; 6.11 Gy, EC-18 250 mg/kg, 250 mg/kg): 27.8 days and 27.8 ± 0.4 days
Survival time of decedents, Median ([6]; 6.11 Gy, EC-18 500 mg/kg): 19.5 days
No. of mice that survived/total [6, 12]: 34/40
Survivability / Survival [6, 12]: 85%
Survival time of decedents, Mean ± SEM ([6]; 6.11 Gy, EC-18 500 mg/kg, 500 mg/kg): 20.3 days and 20.3 ± 1.5 days
radiation-induced depletion of ANC (and WBC) ([6]; 50 and 250 mg/kg, dose-dependent): significantly attenuated
Mean of the First Day Of Anemia (HGB <12 g/dL) (±SE) ([6]; EC-18 50 mg/kg): 10.4 ± 0.7 (5-15)
Mean of the First Day of Neutropenia (ANC <500 cells/μL) (±SE) ([6]; EC-18 50 mg/kg): 3.0 ± 0.0 (3-3)
Mean of the First Day of Thrombocytopenia (PLT <100 × 10^3 cells/μL) (±SE) ([6]; EC-18 50 mg/kg): 10.0 ± 0.0 (10-10)
Mean of the First Day of SN (ANC <100 cells/μL) (±SE) ([6]; EC-18 50 mg/kg, 50 mg/kg): 5.7 ± 0.6 (3-10) days
Mean Duration of Anemia in Days (±SE) ([6]; EC-18 50 mg/kg, n=17): 15.0 ± 0.8^b (7-19) Days
Mean Duration of Neutropenia in Days (±SE) ([6]; EC-18 50 mg/kg, n=19): 21.0 ± 0.7^b (17-24) Days
Mean Duration of SN in Days (±SE) ([6]; EC-18 50 mg/kg, n=19): 11.4 ± 0.9^b (5-19) Days
Mean Duration of Thrombocytopenia in Days (±SE) ([6]; EC-18 50 mg/kg, n=19): 12.8 ± 0.8^b (7-17) Days
Mean of the First Day Of Anemia (HGB <12 g/dL) (±SE) ([6]; EC-18 100 mg/kg): 11.0 ± 0.5 (5-15)
Mean of the First Day of Neutropenia (ANC <500 cells/μL) (±SE) ([6]; EC-18 100 mg/kg): 3.0 ± 0.0 (3-3)
Mean of the First Day of Thrombocytopenia (PLT <100 × 10^3 cells/μL) (±SE) ([6]; EC-18 100 mg/kg): 10.0 ± 0.0 (10-10)
Mean of the First Day of SN (ANC <100 cells/μL) (±SE) ([6]; EC-18 100 mg/kg, 100 mg/kg): 5.1 ± 0.5 (3-10) days
Mean Duration of Anemia in Days (±SE) ([6]; EC-18 100 mg/kg, n=17): 15.5 ± 0.5^c (12-20) Days
Mean Duration of Neutropenia in Days (±SE) ([6]; EC-18 100 mg/kg, n=18): 23.9 ± 0.5^c (19-27) Days
Mean Duration of SN in Days (±SE) ([6]; EC-18 100 mg/kg, n=18): 13.4 ± 1.3^c (7-25) Days
Mean Duration of Thrombocytopenia in Days (±SE) ([6]; EC-18 100 mg/kg, n=18): 14.7 ± 1.0^c (5-20) Days
Mean of the First Day Of Anemia (HGB <12 g/dL) (±SE) ([6]; EC-18 250 mg/kg): 12.1 ± 0.5 (10-15)
Mean of the First Day of Neutropenia (ANC <500 cells/μL) (±SE) ([6]; EC-18 250 mg/kg): 3.2 ± 0.1 (3-5)
Mean of the First Day of Thrombocytopenia (PLT <100 × 10^3 cells/μL) (±SE) ([6]; EC-18 250 mg/kg): 10.1 ± 0.1 (10-12)
Mean of the First Day of SN (ANC <100 cells/μL) (±SE) ([6]; EC-18 250 mg/kg, 250 mg/kg): 8.5 ± 1.0 (3-17) days
Mean Duration of Anemia in Days (±SE) ([6]; EC-18 250 mg/kg, n=19): 9.7 ± 0.7^d (5-17) Days
Mean Duration of Neutropenia in Days (±SE) ([6]; EC-18 250 mg/kg, n=20): 21.2 ± 0.7^d (17-27) Days
Mean Duration of SN in Days (±SE) ([6]; EC-18 250 mg/kg, n=20): 7.2 ± 0.7^d (2-12) Days
Mean Duration of Thrombocytopenia in Days (±SE) ([6]; EC-18 250 mg/kg, n=20): 6.7 ± 0.5^d (3-12) Days
Mean of the First Day Of Anemia (HGB <12 g/dL) (±SE) ([6]; EC-18 500 mg/kg): 12.2 ± 0.5 (7-15)
Mean of the First Day of Neutropenia (ANC <500 cells/μL) (±SE) ([6]; EC-18 500 mg/kg): 3.4 ± 0.2 (3-5)
Mean of the First Day of Thrombocytopenia (PLT <100 × 10^3 cells/μL) (±SE) ([6]; EC-18 500 mg/kg): 10.1 ± 0.1 (10-12)
Mean of the First Day of SN (ANC <100 cells/μL) (±SE) ([6]; EC-18 500 mg/kg, 500 mg/kg): 7.0 ± 0.9 (3-20) days
Mean Duration of Anemia in Days (±SE) ([6]; EC-18 500 mg/kg, n=19): 14.0 ± 0.8^e (7-20) Days
Mean Duration of Neutropenia in Days (±SE) ([6]; EC-18 500 mg/kg, n=19): 21.9 ± 0.6^e (17-27) Days
Mean Duration of SN in Days (±SE) ([6]; EC-18 500 mg/kg, n=19): 9.6 ± 0.6^e (2-14) Days
Mean Duration of Thrombocytopenia in Days (±SE) ([6]; EC-18 500 mg/kg, n=19): 12.3 ± 0.7^e (7-20) Days
severity of the nadir ([6]; mouse, in vivo): diminished
timing of nadirs for neutrophils, PLTs, red blood cells, hemoglobin ([6]; mouse, in vivo): unchanged
elimination rate ([7]; 1-hr reaction, test system A (Phase 1 metabolic reaction)): 21.2%
elimination rate ([7]; 1-hr reaction, test system B (Phase 2 metabolic reaction)): 25.5%
elimination rate ([7]; 1-hr reaction, test system C (non-enzymatic degradation)): 26.5%
elimination rate ([7]; 2-hr reaction, test system A): 32.8%
elimination rate ([7]; 2-hr reaction, test system B): 35.4%
elimination rate ([7]; 2-hr reaction, test system C): 32.6%
Mean Peak Area in LC-RID ([7]; A (NADPH added), [14C]EC-18 2 hrs): 67.2%
Mean Peak Area in LC-RID ([7]; B (NADPH, PAPS, UDPGA added), 2 hrs): 64.6%
Mean Peak Area in LC-RID ([7]; C (no cofactor added), 2 hrs): 67.4%
AUC0-last in lymphatic fluid relative to whole blood [8]: 41 times
Cmax in lymphatic fluid relative to whole blood [8]: 31 times
Tmax ([8]; Lymphatic Fluid): 7.0 h
Tmax ([8]; Whole Blood, fasted): 3.8 h
